# In paper PMC12368815, “Targeting Cancer with New Morpholine-Benzimidazole-Oxadiazole Derivatives: Synthesis, Biological Evaluation, and Computational Insights” (ACS Omega, 2025):
# Legend:
# [1] = tested on: HT-29 cell line (human colon cancer cell line); assay: MTT cytotoxicity assay on HT-29 colon cancer cells; assay type: cell-based; details: for IC50: Homo sapiens, HT-29, MTT, mean of four independent assays, read-out: IC50 HT29; for Selectivity index (SI): NIH3T3 versus HT29
# Method: (§1) Compounds 5a–5j were evaluated for their anticancer activity via the MTT assay against the HT-29 cell line. […] Both the synthesized compounds and standards were tested across concentrations from 1000 to 0.49 μg/mL.
# (§2) The cytotoxic effects of the compounds on colon cancer (HT29, ATCC HTB-38) and normal healthy fibroblast (NIH3T3, ATCC CRL-1658) cell lines were evaluated using the MTT assay. Based on the cytotoxicity data 5c, 5h and 5j stand out in terms of activity.
# [2] = tested on: NIH3T3 (healthy normal fibroblast cells); assay: MTT cytotoxicity assay on NIH3T3 normal fibroblasts; assay type: cell-based; details: Mus musculus, mean of four independent assays
# Method: as §1, §2
# [3] = tested on: HT-29 cells; assay: Annexin V-FITC/PI flow cytometry apoptosis analysis; assay type: cell-based, human; details: HT29, compound at IC50 concentration, 24 h, mean of two repetitions
# From the text: Programmed cell death-apoptosis is a normal physiological process in healthy organisms that eliminates cells no longer needed. During apoptosis, phosphatidylserine (PS) in the cell membrane is translocated to the outer layer. The Annexin V protein included in the kit binds to this externalized PS, enabling its detection with FITC, a fluorescent marker. Annexin V can also bind to necrotic cells. In such cases, the cells are identified using “Ethidium Homodimer III (EthD-III) (or propidium iodide, PI)”. Flow cytometric assay kits use double-staining protocols to assess apoptosis by detecting differences in cell morphology through the binding efficiency of the Annexin–V complex to PS on the cell surface. , Apoptotic, Necrotic, and Healthy Cells Detection Kit [Available from (Apoptic necrotic kit)] used during flow cytometer analysis.
# Briefly, HT-29 cells were plated in six-well plates following the manufacturer’s guidelines and exposed to the compounds at their IC50 concentrations for 24 h. Following treatment, cell suspensions were centrifuged at 1200 rpm for 5 min, and the resulting pellets were rinsed twice with 1 mL of cold phosphate-buffered saline. The assay kits were used according to the manufacturer’s instructions by transferring cells to the appropriate buffer solutions. For each sample, at least 10 000 cells were evaluated. Cell population fractions in various quadrants and gates were determined using quadrant and gate statistical analysis, with settings optimized based on comparison to the untreated control group.
# To further investigate the mechanism underlying its anticancer effect, the ability of compound 5h to induce apoptosis was assessed using the Annexin V-FITC/PI dual staining method. The results are presented in Figure , where the data are shown in four quadrants corresponding to different cell populations: live (living) cells correspond to Q1-LL, early apoptotic cells to Q1-LR, late apoptotic cells to Q1-UR, and necrotic cells to Q1-UL.
# [4] = biological target: T1, VEGFR-2 enzyme (Homo sapiens, UniProt P35968); assay: In vitro VEGFR-2 enzyme inhibition assay kit; assay type: biochemical
# T1 construct: purchased
# T1 sequence (P35968 20-1356): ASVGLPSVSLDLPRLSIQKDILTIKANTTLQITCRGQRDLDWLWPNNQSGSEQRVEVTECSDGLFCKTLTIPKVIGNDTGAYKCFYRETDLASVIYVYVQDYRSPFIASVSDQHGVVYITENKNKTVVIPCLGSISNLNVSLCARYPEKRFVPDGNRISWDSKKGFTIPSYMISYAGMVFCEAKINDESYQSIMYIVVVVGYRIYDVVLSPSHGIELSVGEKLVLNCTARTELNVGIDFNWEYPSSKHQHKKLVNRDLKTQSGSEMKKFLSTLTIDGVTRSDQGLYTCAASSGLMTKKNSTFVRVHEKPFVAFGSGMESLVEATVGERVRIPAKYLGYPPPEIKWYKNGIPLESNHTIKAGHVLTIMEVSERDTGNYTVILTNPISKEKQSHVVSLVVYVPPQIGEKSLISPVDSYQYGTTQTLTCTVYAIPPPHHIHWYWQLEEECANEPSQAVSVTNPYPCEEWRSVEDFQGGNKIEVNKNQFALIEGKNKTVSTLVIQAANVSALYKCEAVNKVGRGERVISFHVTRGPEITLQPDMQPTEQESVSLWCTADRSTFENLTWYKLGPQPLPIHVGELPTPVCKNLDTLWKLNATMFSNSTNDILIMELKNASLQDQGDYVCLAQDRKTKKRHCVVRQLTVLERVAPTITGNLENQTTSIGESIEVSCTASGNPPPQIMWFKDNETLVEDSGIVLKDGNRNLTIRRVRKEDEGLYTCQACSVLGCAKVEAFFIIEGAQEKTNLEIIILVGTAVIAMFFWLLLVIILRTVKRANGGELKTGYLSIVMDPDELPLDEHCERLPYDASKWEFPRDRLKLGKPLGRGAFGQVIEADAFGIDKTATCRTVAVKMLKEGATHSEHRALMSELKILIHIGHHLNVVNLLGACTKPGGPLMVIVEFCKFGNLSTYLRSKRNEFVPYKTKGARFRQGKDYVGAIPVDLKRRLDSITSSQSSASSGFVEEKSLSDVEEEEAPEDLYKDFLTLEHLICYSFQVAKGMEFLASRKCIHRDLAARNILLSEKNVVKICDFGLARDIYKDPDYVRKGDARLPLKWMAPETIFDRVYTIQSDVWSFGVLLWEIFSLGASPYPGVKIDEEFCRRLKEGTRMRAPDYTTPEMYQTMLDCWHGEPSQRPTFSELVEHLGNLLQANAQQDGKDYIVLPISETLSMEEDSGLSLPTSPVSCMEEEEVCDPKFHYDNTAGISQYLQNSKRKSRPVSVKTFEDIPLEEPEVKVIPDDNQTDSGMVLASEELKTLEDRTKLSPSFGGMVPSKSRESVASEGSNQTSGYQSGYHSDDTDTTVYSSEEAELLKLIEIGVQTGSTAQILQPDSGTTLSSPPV
# Method: The inhibitory effects of the synthesized compounds on the VEGFR-2 enzyme were assessed using an in vitro assay kit (Table ).
IC50 [4] [µM],Structure (SMILES),IC50 [1] [µM],Selectivity index (SI) [1],IC50 [2] [µM],early apoptosis [3] [%],late apoptosis [3] [%],necrosis [3] [%],"fold higher cytotoxic activity than compound 5e ([1]; HT-29, compared to 5e)"
,"O=C(CSc1nnc(-c2ccc3nc(-c4ccc(N5CCOCC5)cc4)[nH]c3c2)o1)c1ccc(Cl)cc1 [5e, 1-(4-Chlorophenyl)-2-((5-(2-(4-morpholinophenyl)-1H-benzo[d]imidazol-6-yl)-1,3,4-oxadiazol-2-yl) Thio) Ethan-1-One]",104 ± 4.53,5.12,531 ± 8.1,,,,
,"CNC(=O)c1cc(Oc2ccc(NC(=O)Nc3ccc(Cl)c(C(F)(F)F)c3)cc2)ccn1 [Sorafenib, reference compound]",2.92 ± 0.214,,30.13 ± 0.147,,,,
,"O=C(CSc1nnc(-c2ccc3nc(-c4ccc(N5CCOCC5)cc4)[nH]c3c2)o1)c1ccc([N+](=O)[O-])cc1 [5g, 2-(5-(2-(4-Morpholinophenyl)-1H-benzo[d]imidazol-6-yl-1,3,4-oxadiazol-2-yl)thio)-1-(4-nitrophenyl) Ethan-1-One]",260 ± 8.68,,> 1000,,,,
0.049 ± 0.002,"O=C(CSc1nnc(-c2ccc3nc(-c4ccc(N5CCOCC5)cc4)[nH]c3c2)o1)c1ccc(Cl)c(Cl)c1 [5h, 1-(3,4-Dichlorophenyl)-2-((5-(2-(4-morpholinophenyl)-1H-benzo[d]imidazol-6-yl)-1,3,4-oxadiazol-2-yl) Thio) Ethan-1-One]",3.1 ± 0.979,4.88,15.2 ± 0.987,2.05 ± 0.25,16.95 ± 2.85,12.2 ± 2.1,approximately 33 fold
,"O=C(CSc1nnc(-c2ccc3nc(-c4ccc(N5CCOCC5)cc4)[nH]c3c2)o1)c1ccccc1 [5a, 2-(5-(2-(4-Morpholinophenyl)-1H-benzo[d]imidazol-6-yl)-1,3,4-oxadiazol-2-ylthio)-1-phenylethan-1-One]",135 ± 3.37,1.42,193 ± 7.56,,,,
0.098 ± 0.011,"O=C(CSc1nnc(-c2ccc3nc(-c4ccc(N5CCOCC5)cc4)[nH]c3c2)o1)c1ccc(Br)cc1 [5j, 1-(4-Bromophenyl)-2-((5-(2-(4-morpholinophenyl)-1H-benzo[d]imidazol-6-yl)-1,3,4-oxadiazol-2-yl) Thio) Ethan-1-One]",9.66 ± 0.149,0.47,4.55 ± 0.763,,,,
,"N#Cc1ccc(C(=O)CSc2nnc(-c3ccc4nc(-c5ccc(N6CCOCC6)cc5)[nH]c4c3)o2)cc1 [5f, 4-(2-(5-(2-(4-Morpholinophenyl)-1H-benzo[d]imidazol-6-yl-1,3,4-oxadiazol-2-yl) Thio) Acetyl) Benzonitrile]",30.2 ± 1.16,0.49,14.7 ± 0.818,,,,
,"Cc1ccc(C(=O)CSc2nnc(-c3ccc4nc(-c5ccc(N6CCOCC6)cc5)[nH]c4c3)o2)c(C)c1 [5i, 1-(2,4-Dimethylphenyl)-2-((5-(2-(4-morpholinophenyl)-1H-benzo[d]imidazol-6-yl)-1,3,4-oxadiazol-2-yl) Thio) Ethan-1-One]",72.1 ± 4.61,2.05,148 ± 3.99,,,,
,"Cc1ccc(C(=O)CSc2nnc(-c3ccc4nc(-c5ccc(N6CCOCC6)cc5)[nH]c4c3)o2)cc1 [5b, 2-(5-(2-(4-Morpholinophenyl)-1H-benzo[d]imidazol-6-yl)-1,3,4-oxadiazol-2-ylthio)-1-(p-tolyl) Ethan-1-One]",22.7 ± 2.39,0.46,10.5 ± 2.17,,,,
0.918 ± 0.027,"COc1ccc(C(=O)CSc2nnc(-c3ccc4nc(-c5ccc(N6CCOCC6)cc5)[nH]c4c3)o2)cc1 [5c, 1-(4-Methoxyphenyl)-2-(5-(2-(4-morpholinophenyl)-1H-benzo[d]imidazol-6-yl-1,3,4-oxadiazol-2-yl) Thio) Ethan-1-One]",17.8 ± 1.77,0.59,10.4 ± 0.205,,,,
,"O=C(CSc1nnc(-c2ccc3nc(-c4ccc(N5CCOCC5)cc4)[nH]c3c2)o1)c1ccc(F)cc1 [5d, 1-(4-Fluorophenyl)-2-((5-(2-(4-morpholinophenyl)-1H-benzo[d]imidazol-6-yl)-1,3,4-oxadiazol-2-yl) Thio) Ethan-1-One]",175 ± 5.92,0.93,163 ± 3.75,,,,
